Experimental data as given in patent US11225480B2, “Malic enzyme inhibitors” (SUN PHARMA ADVANCED RESEARCH COMPANY LTD, priority 2019, dated 2022).

Target: T1, human ME3 enzyme (Homo sapiens, UniProt Q16798)
T1 sequence (Q16798 1-604): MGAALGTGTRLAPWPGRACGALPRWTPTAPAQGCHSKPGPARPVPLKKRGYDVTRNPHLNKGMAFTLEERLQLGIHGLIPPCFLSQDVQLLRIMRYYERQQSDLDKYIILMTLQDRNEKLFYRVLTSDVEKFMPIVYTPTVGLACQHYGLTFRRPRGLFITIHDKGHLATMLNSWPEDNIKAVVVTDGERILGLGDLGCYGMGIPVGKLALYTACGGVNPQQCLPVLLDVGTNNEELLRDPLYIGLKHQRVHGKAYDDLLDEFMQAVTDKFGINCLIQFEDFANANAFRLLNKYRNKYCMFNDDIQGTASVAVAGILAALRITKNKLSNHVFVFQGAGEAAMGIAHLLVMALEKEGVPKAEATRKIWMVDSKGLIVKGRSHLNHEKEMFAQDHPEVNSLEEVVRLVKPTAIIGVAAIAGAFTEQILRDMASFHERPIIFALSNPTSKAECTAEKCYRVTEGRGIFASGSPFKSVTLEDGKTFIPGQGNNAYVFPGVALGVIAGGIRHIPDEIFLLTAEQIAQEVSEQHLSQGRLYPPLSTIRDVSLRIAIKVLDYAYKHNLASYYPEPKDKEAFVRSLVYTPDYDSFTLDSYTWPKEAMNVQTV
Assay: ME3 inhibition assay (diaphorase/resazurin coupled fluorescence)
Format: biochemical
Conditions: 10 μM compound concentration; read-out: Malic Enzyme 3 % inhibition (10 μM)
Procedure: ME3 catalyzes the oxidative decarboxylation of malate to pyruvate with conversion of the co-factor β-NADP+ to NADPH. In the fluorescence assay, a coupled reaction is set up wherein an enzyme, Diaphorase, utilizes NADPH generated by ME3, to convert the dye resazurin to a fluorescent molecule resorufin.
The enzyme activity inhibition assay is set up in a 200 μL final reaction volume in a 96-well plate. As per the experimental design, 2 μL of the test compounds at 100× the desired concentration (10 μM) in DMSO were added to the respective wells with 178 μL of assay buffer (50 mM Tris-HCl pH 7.5, 10 mM MnCl2, 3 mM L-malate, 50 μM Resazurin and 0.025 mg/ml Diapharose). The 96-well plate was incubated on a plate shaker at room temperature for 15 minutes protected from light. The well contents were gently mixed by adding 10 μL of 20 nM human ME3 enzyme to the wells and the plate was incubated on a shaker at room temperature for 5 minutes protected from light. Suitable enzyme only and no enzyme controls were included in the experiment. The enzyme reaction was started by adding 10 μL of 1 mM D-NADP+. The reaction was gently mixed and the plate was initially left on a shaker at room temperature for ˜7 minutes protected from light. Later, the plate was incubated without shaking at room temperature for 3 hours. At the end of 3 hours, the fluorescence of the wells was measured at excitation 540 nm and emission 600 nm.

| SMILES | inhibition at 10 µM |
| --- | --- |
| O=C(CSc1ccc([N+](=O)[O-])cn1)N1CCN(c2ccc(O)cn2)CC1 [I.97, 1-[4-(5-hydroxy-pyridin-2-yl)-piperazin-1-yl]-2-(5-nitro-pyridin-2-ylsulfanyl)-ethanone] | > 90% |
| O=C(c1cnc2ccccc2c1)N1CCN(c2ccc(O)cc2)CC1 [I.24, [4-(4-Hydroxy-phenyl)-piperazin-1-yl]-quinolin-3-yl-methanone] | > 90% |
| O=C(/C=C/c1ccc([N+](=O)[O-])cc1)N1CCN(c2ccc(O)cn2)CC1 [I.77, (E)-1-[4-(5-Hydroxy-pyridin-2-yl)-piperazin-1-yl]-3-(4-nitro-phenyl)-propenone] | > 90% |
| CN(CC(=O)N1CCN(c2ccc(O)cn2)CC1)S(=O)(=O)c1cccc2cccnc12 [I.89, quinoline-8-sulfonic acid {2-[4-(5-hydroxypyridin-2-yl)-piperazin-1-yl]-2-oxo-ethyl}-methylamide] | > 90% |
| CC(=O)N[C@@H](C(=O)N1CCN(c2ccc(O)cc2)CC1)c1ccccc1 [I.19, N-{(1R)-2-[4-(4-Hydroxy-phenyl)-piperazin-1-yl]-2-oxo-1-phenyl-ethyl}acet-amide] | > 90% |
| COC(=O)C1C2CCC(O2)C1C(=O)N1CCN(c2ccc(O)cn2)CC1 (stereo not shown) [I.104, 3-[4-(5-Hydroxy-pyridin-2-yl)-piperazine-1-carbonyl]-7-oxa-bicyclo-[2.2.1]heptane-2-carboxylic acid methyl ester] | 70 to 89% |
| O=C(O)c1ccccc1C(=O)N1CCN(c2ccc(O)cn2)CC1 [I.111, 2-[4-(5-Hydroxy-pyridin-2-yl)-piperazine-1-carbonyl]-benzoic acid] | > 90% |
| O=C(c1ccc(Cl)s1)N1CCN(c2ccc(O)cn2)CC1 [I.76, (5-Chloro-thiophen-2-yl)-[4-(5-hydroxy-pyridin-2-yl)-piperazin-1-yl]-methanone] | > 90% |
| O=C(c1cccn2c(-c3ccc(C(F)(F)F)cc3)cnc12)N1CCN(c2ccc(O)cc2)CC1 [I.31, [4-(4-hydroxy-phenyl)-piperazin-1-yl]-[3-(4-trifluoromethyl-phenyl)-imidazo[1,2-a]pyridin-8-yl]-methanone] | > 90% |
| O=C(CCc1ccc(O)cc1)N1CCN(c2ccc(O)cn2)CC1 [I.100, 3-(4-Hydroxy-phenyl)-1-[4-(5-hydroxy-pyridin-2-yl)-piperazin-1-yl]-propan-1-one] | > 90% |
| O=C(CCc1ccc(Br)cc1)N1CCN(c2ccc(O)cn2)CC1 [I.103, 3-(4-Bromo-phenyl)-1-[4-(5-hydroxy-pyridin-2-yl)-piperazin-1-yl]-propan-1-one] | > 90% |
| O=C(c1cc(-c2ccccc2)nc(N2CCOCC2)c1)N1CCN(c2ccc(O)cc2)CC1 [I.33, [4-(4-Hydroxy-phenyl)-piperazin-1-yl]-(2-morpholino-6-phenyl-4-pyridyl)-methanone] | > 90% |
| O=C(c1cccc2c1ccn2Cc1ccccc1)N1CCN(c2ccc(O)cc2)CC1 [I.26, (1-benzylindol-4-yl)-[4-(4-hydroxyphenyl)piperazin-1-yl]methanone] | > 90% |
| O=C(c1cc(Cl)nc(N2CCOCC2)c1)N1CCN(c2ccc(O)cc2)CC1 [I.36] | > 90% |
| O=C(CCC(c1ccccc1)c1ccccc1)N1CCN(c2ccc(O)cn2)CC1 [I.112, 1-[4-(5-Hydroxy-2-pyridyl)-piperazin-1-yl]-4,4-diphenyl-butan-1-one] | > 90% |
| O=C(c1ccc(Br)s1)N1CCN(c2ccc(O)cn2)CC1 [I.87, (5-Bromo-thiophen-2-yl)-[4-(5-hydroxy-pyridin-2-yl)-piperazin-1-yl]-methanone] | > 90% |
| O=C(c1nc2ccccc2[nH]1)N1CCN(c2ccc(O)cn2)CC1 [I.86, (1H-Benzo-imidazol-2-yl)-[4-(5-hydroxy-pyridin-2-yl)-piperazin-1-yl]-methanone] | > 90% |
| Cc1cn(-c2cc(C(=O)N3CCN(c4ccc(O)cn4)CC3)cc(C(F)(F)F)c2)cn1 [I.81, [4-(5-Hydroxy-pyridin-2-yl)-piperazin-1-yl]-[3-(4-methyl-imidazol-1-yl)-5-trifluoro-methylphenyl]-methanone] | > 90% |
| O=C(C(=O)N1CCN(c2ccc(O)cc2)CC1)c1ccccc1 [I.17, 1-[4-(4-hydroxyphenyl)-piperazin-1-yl]-2-phenyl-ethane-1,2-dione] | > 90% |

| SMILES | inhibition at 10 µM |
| --- | --- |
| O=C(C1CC1)N1CCN(c2ccc(O)cn2)CC1 [I.119, Cyclopropyl-[4-(5-hydroxy-2-pyridyl)-piperazin-1-yl]methanone] | > 90% |
| O=C(c1cc(-c2ccccc2)cc(-c2ccccc2)c1)N1CCN(c2ccc(O)cc2)CC1 [I.27, (3,5-Diphenyl-phenyl)-[4-(4-hydroxy-phenyl)-piperazin-1-yl]methanone] | > 90% |
| COCCN1CCC(C(=O)N2CCN(c3ccc(O)cc3)CC2)CC1 [I.7, [4-(4-Hydroxy-phenyl)-piperazin-1-yl]-[1-(2-methoxy-ethyl)-piperidin-4-yl]-methanone] | > 90% |
| O=C(CCc1ccccc1Br)N1CCN(c2ccc(O)cn2)CC1 [I.102, 3-(2-Bromo-phenyl)-1-[4-(5-hydroxy-pyridin-2-yl)-piperazin-1-yl]-propan-1-one] | > 90% |
| N#Cc1cc(N2CCN(C(=O)c3cc(-c4ccccc4)nc(-c4ccccc4)c3)CC2)ccc1O [I.37, 5-[4-(2,6-diphenylpyridine-4-carbonyl)piperazin-1-yl]-2-hydroxy-benzonitrile] | 50 to 69% |
| O=C(O)c1cc(N2CCN(C(=O)c3cc(-c4ccccc4)nc(-c4ccccc4)c3)CC2)ccc1O [I.38, 5-[4-(2,6-Diphenyl-pyridine-4-carbonyl)-piperazin-1-yl]-2-hydroxy-benzoic acid] | > 90% |
| CN(C)c1ccc(CCC(=O)N2CCN(c3ccc(O)cn3)CC2)cc1 [I.108, 3-(4-Dimethyl-aminophenyl)-[4-(5-hydroxy-pyridin-2-yl)-piperazin-1-yl]-propan-1-one] | > 90% |
| CCCCn1cc(C(=O)N2CCN(c3ccc(O)cc3)CC2)c2ccccc21 [I.18, (1-Butyl-1H-indol-3-yl)-[4-(4-hydroxy-phenyl)-piperazin-1-yl]-methanone] | > 90% |
| CC(=O)N[C@@H](Cc1ccccc1)C(=O)N1CCN(c2ccc(O)cc2)CC1 [I.16, N-{(1S)-1-Benzyl-2-[4-(4-hydroxy-phenyl)-piperazin-1-yl]-2-oxoethyl}-acetamide] | > 90% |
| O=C(c1cccc(-c2cccc3[nH]ccc23)c1)N1CCN(c2ccc(O)cn2)CC1 [I.113, [4-(5-hydroxypyridin-2-yl)-piperazin-1-yl]-[3-(1H-indol-4-yl)phenyl]methanone] | > 90% |
| O=C(C1CCCCC1)N1CCN(c2ccc(O)cn2)CC1 [I.118, Cyclohexyl-[4-(5-hydroxy-2-pyridyl)-piperazin-1-yl]methanone] | > 90% |
| O=C(O)c1cc(N2CCN(C(=O)Cc3ccccc3)CC2)ccc1O [I.32, 2-hydroxy-5-(4-phenylacetyl-piperazin-1-yl)-benzoic acid] | 70 to 89% |
| O=C(c1cc(-c2ccccc2)nc(-c2ccccc2)c1)N1CCN(c2ccc(O)cc2)CC1 [I.20, (2,6-diphenyl-4-pyridyl)-[4-(4-hydroxyphenyl)piperazin-1-yl]methanone] | > 90% |
| CCCCOc1ccc(CCC(=O)N2CCN(c3ccc(O)cc3)CC2)cc1 [I.13, 3-(4-Butoxy-phenyl)-1-[4-(4-hydroxy-phenyl)-piperazin-1-yl]-propan-1-one] | > 90% |
| O=C(c1cn(Cc2ccccc2)c2ccccc12)N1CCN(c2ccc(O)cc2)CC1 [I.15, (1-Benzyl-1H-indol-3-yl)-[4-(4-hydroxy-phenyl)-piperazin-1-yl]-methanone] | > 90% |
| O=C(C(c1ccccc1)C1CCCCC1)N1CCN(c2ccc(O)cn2)CC1 (stereo not shown) [I.99, 2-Cyclo-hexyl-1-[4-(5-hydroxy-2-pyridyl)-piperazin-1-yl]-2-phenyl-ethanone] | > 90% |
| COCCOc1ccc2[nH]cc(C(=O)N3CCN(c4ccc(O)cc4)CC3)c2c1 [I.10, [4-(4-Hydroxy-phenyl)-piperazin-1-yl]-[5-(2-methoxy-ethoxy)-1H-indol-3-yl]-methanone] | > 90% |
| O=C(CCC12CC3CC(CC(C3)C1)C2)N1CCN(c2ccc(O)cn2)CC1 [I.98, 3-(1-Adamantyl)-1-[4-(5-hydroxy-2-pyridyl)-piperazin-1-yl]propan-1-one] | > 90% |
